Experimental data published in article PMC9114170, “Investigation of the Role of Hydrophobic Amino Acids on the Structure-Activity Relationship in the Antimicrobial Venom Peptide Ponericin L1” (The Journal of membrane biology, 2021).
Ends that are not written are not given here.

Assays:
[1] = test system: Gram-positive and Gram-negative strains; experiment: Antimicrobial activity over the MIC panel; assay type: cell-based; conditions: highest concentration tested 15μM
Experimental: Six different strains of bacteria were streaked on LB-Miller agar plates from a frozen glycerol stock derived from the original samples shipped from CGSC (Coli Genetic Stock Center, Yale University) or ATCC (American Type Culture Collection) (Escherichia coli D31 CGSC 5165 ([Burman, Nordstrom & Boman, 1968]), Staphylococcus aureus ATCC 35556. Pseudomonas aeruginosa PA-01 ATCC 47085, Acinetobacter baumannii ATCC 19606). For each of the strains a liquid overnight culture was prepared using a single colony into fresh LB broth and placed in a shaking incubator for ~ 18 hours at 37 C at 225 rpm. After the incubation period, a 1:200 dilution was made in fresh LB broth and then used for experimentation. Minimal Inhibitory Concentration (MIC) determinations were performed using mid-log phase bacteria diluted to 5 x 10^5 CFU/mL. Next, 90 μL of this diluted culture was then pipetted into a sterile 96-well plate that contains serially diluted aliquots of the peptide variants to consist of a total volume of 100 μL. This plate was then incubated for 18 hours at 37 C. Bacterial growth was determined by taking an OD600 measurement using a Spectramax M5 multimode plate reader post incubation. Minimal Bactericidal Concentration (MBC) was performed by taking 1 μL of the culture from the MIC plate and then pipetting it on to a fresh LB agar plate. After plating this culture, the plate was then incubated overnight at 37 C. MBC was determined by the growth or the lack of growth from each well on the agar plate.
The ability of L1 and the hydrophobic variants to act as antimicrobials was investigated using the Minimal Inhibitory Concentration (MIC) and Minimal Bactericidal Concentration (MBC) assays as previously described ([Wiegand, Hilpert & Hancock, 2008]). The MIC is determined as the lowest concentration of peptide required to inhibit bacterial growth in solution, while the MBC is the lowest concentration required to act in a bactericidal mechanism (as opposed to bacteriostatic) and is determined by plating MIC cultures on antimicrobial-free media. Peptides were screened against E. coli, S. aureus, A. baumannii, P. aeruginosa, B. subtilis, and K. pneumoniae.

[2] = test system: E. coli D31 inner membrane; experiment: E. coli inner membrane permeabilization (ONPG / β-galactosidase); assay type: cell-based, Escherichia coli; conditions: E. coli D31, ONPG hydrolysis, absorbance 420 nm, up to 90 minutes; average of three replicates
Experimental: A single colony of E.coli D31 was inoculated into LB broth and placed in a shaking incubator and set to 225 rpm at 37 C for ~ 18 hours. A 1:250 dilution was made using the overnight culture into fresh LB broth. To induce the expression the expression of β-galactosidase, a final concentration of 100mM of IPTG was introduced. This dilution plus the IPTG was placed back into the shaking incubator for about 2 hours until an OD600 of 0.2-0.4 was achieved.
A 96 well plate was prepared with the following solutions in order: 10 μL of each peptide variant 2-fold serially diluted down the plate with the exception of the final row (used as a negative control 10 μL of 0.01% acetic acid), 56 μL Z-buffer (60mM Na2HPO4, 40mM NaH2PO4, 10mM KCl, 1mM MgSO4, 50mM β-mercaptoethanol pH 7), 19 μL of the E. coli culture, and 15 μL of 4 mg/ml ONPG that was prepared in Z-buffer added immediately before the assay began. Absorbance measurements wer taken at 420 nm every 5 minutes for a total run time of 90 minutes. […]
As the mechanism of action of the L1 venom peptide is likely a membrane disruptive mechanism, the effect of the hydrophobic substitutions on membrane permeabilization was investigated using E.coli and ovine red blood cells (RBCs). […] Similarly, the permeabilization of the E. coli inner membrane was assessed using a cytoplasmic enzyme, β-galactosidase, and a chromogenic substrate, ONPG. […]

[3] = Acrylamide quenching of Trp fluorescence in absence and presence of lipid vesicles; assay type: physicochemical; conditions: 2 μM peptide in PBS pH 7.0, λex 295 nm, λem 340, average of three replicates ± SD; for Acrylamide quenching Ksv, PCPG: 3:1 DOPC:DOPG vesicles; for Acrylamide quenching Ksv, PCPG / Acrylamide quenching Ksv, PEPG / Acrylamide quenching Ksv, PC / Acrylamide quenching Ksv, PC/Chol: 250 μM lipid; for Acrylamide quenching Ksv, PEPG: 3:1 POPE:DOPG vesicles; for Acrylamide quenching Ksv, PC: DOPC vesicles; for Acrylamide quenching Ksv, PC/Chol: DOPC:Cholesterol vesicles; for Acrylamide quenching Ksv, PBS: no lipid vesicles
Experimental: To form small unilamellar vesicles (SUVs) sonication or ethanol dilution methods were implemented ([Caputo & London, 2019]). In all cases, lipid vesicle preparation was the same. Depending on the lipid composition, appropriate volumes of lipids in chloroform were mixed in a glass tube and then allowed to dry under N2 gas for 15 minutes. The lipid films were then placed in a vacuum desiccator and allowed to dry further under a vacuum for 1 hour. For vesicles formed through ethanol dilution methods, 10 μL of pure ethanol was added to the film, and then vortex until the dissipation of the film. While continuing to vortex, the appropriate amount of PBS was added. For vesicles formed using the method of sonication, PBS was added directly to the tube while being vortexed to create multilamellar vesicles (MLVs). The MLV suspension was covered with parafilm and then placed in a high-powered bath sonicator (Avanti Lipids) and subjected to sonication for 20 minutes to create SUVs.
Acrylamide quenching was monitored by titration of samples with 10 μL aliquots of 4M acrylamide titrated into peptide samples prepared as described above. These samples contained either or [0.25] mM total lipid. After each addition of acrylamide, Trp fluorescence intensity was measured using λex = 295 nm and λem = 340. Corrections to the emission intensity were made for background subtraction, dilutions, and inner filter effects in the excitation path as described previously. The same method to calculate Ksv was used as above.
In order to gain more insight into the bilayer interactions, fluorescence quenching approaches were utilized. The peptides were exposed to the aqueous quencher acrylamide in solution or when bound to vesicles. […] Thus, peptide Trp exposure to the aqueous milieu can be gauged by the extent of quenching by acrylamide. Stern-Volmer quenching plots were created to analyze the data and Ksv (slopes of a linear fit to the data) are shown in Figure 4 and Table 2. […] In the case of L1L and L1I, there was a significant reduction in quenching between the solution (free) state of the peptide and when bound to anionic vesicles, but a much smaller reduction if any when interacting with zwitterionic vesicles. This is consistent with a more deeply buried Trp in anionic bilayers.

Row | Sequence | Antimicrobial activity (summary of MIC results) [1] | Inner membrane permeabilization [2] | Acrylamide quenching Ksv, PCPG [3] [M⁻¹] | Acrylamide quenching Ksv, PEPG [3] [M⁻¹] | Acrylamide quenching Ksv, PC [3] [M⁻¹] | Acrylamide quenching Ksv, PC/Chol [3] [M⁻¹] | Acrylamide quenching Ksv, PBS [3] [M⁻¹]
1 | FFKEFWTKMKGAGKAFFGKFKGFF [L1F] | broad spectrum activity | exhibited any inner membrane permeabilizing activity | 2.06 ± 0.97 | 1.80 ± 0.77 | 1.57 ± 3.49 | 1.63 ± 0.20 | 4.18 ± 4.79
2 | LLKELWTKMKGAGKALLGKLKGLL [L1L] | broad spectrum activity | exhibited any inner membrane permeabilizing activity | 3.51 ± 0.17 | 2.22 ± 4.04 | 4.08 ± 2.10 | 8.92 ± 0.94 | 4.26 ± 0.97
